Assays:
[1] = target: T1, Axl kinase (Homo sapiens, UniProt P30530); assay: Axl kinase inhibition assay (Kinase-Glo); assay type: biochemical; conditions: 3 μM ATP
T1 construct: purchased BPS Bioscience Inc, San Diego Calif
Experimental: One illustrative manner in which Axl kinase activity can be determined is by quantifying the phosphorylation of a known Axl substrate in an in vitro assay. In this assay kinase activity is determined by quantifying the amount of ATP remaining in solution following the kinase reaction by measuring the relative light units (RLU) produced by luciferase using a luminometer. Percent activity was determined for individual compounds by comparing luminometer readings of drug-treated reactions to controls containing no drug (RLUNO Inhib) and no […] enzyme (RLUNO Kinase) in the following equation: […]
In a 50 μl reaction, 200 ng/μl of Axl kinase (BPS Bioscience Inc, San Diego Calif.) was incubated at 30° C. for two hours with shaking (360 rpm) with 10 μg/ml Poly (Glu:Tyr) substrate (BPS Bioscience Inc, Calif.), 3 μM ATP. (Invitrogen, Carlsbad, Calif.) and kinase reaction buffer (40 mM MOPS, 75 mM MgCl2 and 0.1 mM EDTA). The value of 3 μM ATP was determined to be the Km (concentration at which the enzyme is working at 50% maximum velocity) for the amount of enzyme used in this assay. […] Kinase activity is determined by quantifying the amount of ATP remaining in solution following the kinase reaction by measuring the relative light units (RLU) produced by luciferase using a luminometer (Thermo Electron Corporation, Vantaa, Finland).

[2] = tested on: HT-29 human colon cancer cells; assay: HT-29 xenograft study in mice (Example 19); assay type: in vivo; conditions: 25 mg/kg intraperitoneally, q.d.x 5 for two weeks
Experimental: In order to evaluate the effectiveness of compound 1-1 against tumor cells in a living system, a xenograft study was performed in mice. 1×10^7 HT-29 human colon cancer cells were injected subcutaneously into 16 Nu/Nu athymic nude mice (Charles River Laboratories, Wilmington, Mass.). Tumor volume was measured according to the formula ((Width)^2*Length)/2. Tumors were allowed to grow to approximately 100 mm^3 in volume (Day 0), at which point mice were randomized to two groups: Eight mice were treated with 25 mg/kg compound 1-1, while the other eight were given an equal volume of drug vehicle. For this study, the drug vehicle used was 60% propylene glycol, 30% polyethylene glycol 300, 10% ethanol with 150 mg/mL 2-hydroxypropyl-beta-cyclodextrin. Each mouse received 0.1 mL of drug or vehicle intraperitoneally on a q.d.x 5 schedule for two weeks, with two days rest between cycles.

[3] = tested on: HT-29 cells; assay: hollow fiber xenograft model (MTT), HT-29; assay type: in vivo, athymic nude mice; conditions: HT-29 fibers implanted IP
Experimental: (§1) Compound 2-3 was tested against three tumor types in athymic nude mice using the hollow fiber xenograft model. After incubation and growth overnight, drug-permeable fibers containing tumor cells were surgically implanted either intraperitoneally (IP) or subcutaneously (SC) and allowed to grow for 24-hours. After treatment with compound 2-3, fibers were removed and tumor cell growth was measured using the MTT assay. A549, Panc-1 or HT-29 cells were injected into separate fibers and each mouse received a fiber containing each cell line both SC and IP totaling six fibers per mouse.

[4] = tested on: Aurora-2 kinase (Aurora-A) over Aurora-1 kinase (Aurora-B); assay: SelectScreen kinase assay, specificity within the Aurora kinase family; assay type: biochemical; conditions: SelectScreen kinase assay system
Experimental: In order to determine the specificity of compound 2-3 within the Aurora kinase family, both Aurora-2 kinase (Aurora-A) and Aurora-1 kinase (Aurora-B) were examined for sensitivity to this molecule. These studies were performed using the SelectScreen kinase assay system (Invitrogen Corp.; Madison, Wis.) and gave rise to the results presented in FIG. 2.

[5] = tested on: Histone H3 phospho-Serine 10 in MiaPaCa-2 cells; assay: Western Blot for Histone H3 phospho-Serine 10; assay type: cell-based; conditions: synchronized MiaPaCa-2 cells, 30 µM compound, 24 hours
Source text: A hallmark of Aurora-2 kinase inhibition, which distinguishes it from Aurora-1 kinase inhibition, is an increase in Histone H3 phosphorylation on Serine 10, an activity which is controlled by Aurora-1 kinase. This is in contrast to the decrease in Histone H3 phosphorylation that has been observed with Aurora-1 kinase inhibition. Compound 2-3 was examined for its effect on Histone H3 phosphorylation, in order to further verify its specificity for Aurora-2 kinsase. Briefly, MiaPaCa-2 cells were grown in 25 cm^2 flasks to approximately 40% confluency, and then synchronized with Aphidicolin and Hoechst 33342 as described above. Cell were then released and treated with 30 µM compound 2-3 in culture medium for 24 hours. Cells were then lysed, and total protein was quantified. 50 μg of total protein was electrophoresed and transferred to nitrocellulose, at which time Western Blot analysis for Histone H3 phospho-Serine 10 was performed. […] This signal quickly disappeared, as the cells began to undergo apoptosis, as discussed earlier.

[6] = tested on: Panc-1 cells; assay: hollow fiber xenograft model (MTT), Panc-1; assay type: in vivo, athymic nude mice; conditions: Panc-1 fibers implanted SC
Experimental: as §1

[7] = tested on: Granta-22 lymphoma cell line; assay: lymphoma cell number reduction, Granta-22; assay type: cell-based; conditions: 48 hours; read-out: IC50 Values Granta-22, single agent
Experimental: New IC50 values were calculated for the second agent in an effort to determine whether or not pretreatment with one compound would increase sensitivity to the other. As set forth in the table below, compound 2-3 pretreatment led to an increased sensitivity to Taxol®, however Taxol® pretreatment appeared to be […] to compound 2-3 in this assay.

T1 sequence (P30530 26-894): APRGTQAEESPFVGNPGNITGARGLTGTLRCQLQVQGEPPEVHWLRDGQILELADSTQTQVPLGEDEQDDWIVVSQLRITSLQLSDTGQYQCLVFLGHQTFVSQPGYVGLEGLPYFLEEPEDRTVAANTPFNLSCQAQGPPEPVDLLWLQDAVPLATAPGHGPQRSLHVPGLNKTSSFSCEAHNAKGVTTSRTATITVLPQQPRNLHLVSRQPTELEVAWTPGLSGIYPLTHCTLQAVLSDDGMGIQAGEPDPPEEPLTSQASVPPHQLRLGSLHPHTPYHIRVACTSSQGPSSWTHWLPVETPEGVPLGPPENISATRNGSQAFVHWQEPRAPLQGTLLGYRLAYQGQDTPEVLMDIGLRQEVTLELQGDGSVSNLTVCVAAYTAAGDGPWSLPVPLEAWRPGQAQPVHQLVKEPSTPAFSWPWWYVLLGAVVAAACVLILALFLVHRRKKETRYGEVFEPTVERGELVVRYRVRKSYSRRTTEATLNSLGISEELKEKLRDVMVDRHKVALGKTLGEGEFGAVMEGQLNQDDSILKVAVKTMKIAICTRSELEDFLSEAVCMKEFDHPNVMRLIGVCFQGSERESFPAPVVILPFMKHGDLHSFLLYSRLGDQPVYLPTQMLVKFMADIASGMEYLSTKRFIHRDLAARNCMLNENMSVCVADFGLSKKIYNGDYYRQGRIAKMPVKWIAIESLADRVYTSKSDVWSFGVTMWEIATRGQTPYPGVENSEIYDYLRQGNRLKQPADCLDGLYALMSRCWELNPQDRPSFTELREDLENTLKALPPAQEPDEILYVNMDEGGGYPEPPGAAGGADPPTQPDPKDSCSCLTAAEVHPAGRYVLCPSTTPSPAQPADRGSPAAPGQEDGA

SMILES | IC50 [1] [µM] | toxicity through the duration of the study [2] | tumor growth inhibition in vivo [2] | tumor cell growth in fibers ([3]; 20 mg/kg intravenous) [%] | tumor cell growth in fibers ([3]; 40 mg/kg intravenous) [%] | selectivity for Aurora-2 kinase over Aurora-1 kinase [4] | Histone H3 Serine 10 phosphorylation [5] | tumor cell growth in fibers ([6]; 20 mg/kg intravenous) [% growth] | tumor cell growth in fibers ([6]; 40 mg/kg intravenous) [% growth] | IC50 [7] [µM]
CC(=O)NS(=O)(=O)c1ccc(NC(=S)N2CCN(c3ncnc4[nH]c5cc(C(F)(F)F)c(Cl)cc5c34)CC2)cc1 [Compound 1-1, 4-(6-Chloro-7-trifluoromethyl-9H-pyrimido[4,5-b]indol-4-yl)-piperazine-1-carbothioic acid (4-acetylsulfamoyl-phenyl)-amide] | 9.8 | No noticeable toxicity | effective for inhibiting tumor growth in vivo | – | – | – | – | – | – | –
COc1cc2[nH]c3ncnc(N4CCN(C(=S)Nc5ccc(S(=O)(=O)Nc6ccc(F)cc6)cc5)CC4)c3c2cc1OC [Compound 2-3, 4-(6,7-dimethoxy-9H-pyrimido[4,5-b]indol-4-yl)-N-(4-(N-(4-fluorophenyl)sulfamoyl)phenyl)piperazine-1-carbothioamide] | – | – | – | 53.8 | 73.4 | over 100 fold | pronounced phosphorylation signal | 58.7 | 60.9 | 6.67
